From patent publication US20080058280A1, “Treatment of Lymphoma Using 10-Propargyl-10-Deazaaminopterin and Gemcitabine” (SLOAN-KETTERING INSTITUTE FOR CANCER RESEARCH, priority 2004, published 2008)

Experiments:
[1] = test system: subcutaneous tumors of SKI; assay: Preliminary combination xenograft experiment; type: in vivo, irradiated NOD-SCID mice; conditions: for tumor response (in words): MTX 40 mg/kg (MTD), Ara-C 300 mg/kg (MTD), or combination at one-half the MTD
Protocol: Given the experience that SKI-DLCL-1 is the most PDX resistant line in the panel, it was selected for these in vivo synergy experiments. […] All animals were treated with the maximum tolerated dose (MTD) of each drug, save the combination studies.

SKI-DLBCL-1 xenografts = assay: TUNEL immunohistochemical staining for apoptosis in xenografts; type: in vivo, mice; conditions: day 21; MTX 40 mg/kg or PDX 60 mg/kg on days 0, 3, 7 and 10
Protocol: Immunohistochemical staining for apoptosis as measured by terminal deoxynucleotide transferase-mediated nick end-labeling (TUNEL) was performed on SKI-DLBCL-1 xenografts from mice sacrificed at day 21 following initiation of antifolate therapy. Mice received four doses of saline, MTX (40 mg/kg) or PDX (60 mg/kg) on days 0, 3, 7 and 10.

[2] = test system: human RL (transformed follicular) non-Hodgkin's lymphoma xenografts; assay: Subcutaneous lymphoma xenograft treatment; type: in vivo
From the text: (§1) In order to study the effects of PDX on lymphoma growth in vivo, subcutaneous transplantation models in NOD/SCID mice were generated using three established human lymphoma cell line representative of aggressive transformed FL (RL) and de novo extranodal DLBCL (HT; SKI-DLCL-1) histologies. Six to eight week old non-obsese diabetic severe combined immunodeficient (NOD/SCID) mice (Jackson Laboratories, Bar Harbor, Me.) were sub-lethally irradiated with […] from a gamma source and inoculated with 10×10^6 lymphoma cells via a subcutaneous route. When tumor volumes approached 100 mm^3, mice were divided into three groups, averaging 3-8 mice per group. Mice were treated with normal saline or the maximum tolerated dose (MTD) of MTX (40 mg/kg) or PDX (60 mg/kg) via an intraperitoneal route twice weekly for two weeks (four total doses). […] (Sirotnak, et al., Cancer Chemother. Pharmacol. 12: 26-30 (1984); Sirotnak et al., Cancer Chemother. Pharmacol. 42: 313-318 (1998).
(§2) Engraftment rates in this experiment ranged from 80 to 90%. Palpable tumors formed under the skin approximately 7-10 days after inoculation and were readily measurable with calipers. Mice with subcutaneous lymphoma growths survived an average of 40-50 days after inoculation.

[3] = test system: human SKI-DLCL-1 (de novo diffuse large B cell) non-Hodgkin's lymphoma xenografts; assay: Subcutaneous lymphoma xenograft treatment; type: in vivo; conditions: SKI-DLCL-1 xenografts
From the text: as §1, §2

[4] = test system: human HT (diffuse large B cell) non-Hodgkin's lymphoma xenografts; assay: Subcutaneous lymphoma xenograft treatment; type: in vivo
From the text: as §1, §2

[5] = cited from earlier work; for weight loss at the MTD: nude mice
SKI-DLBCL-1 xenograft = assay: Second combination xenograft experiment (FIG. 5); type: in vivo, SCID beige mice; conditions: PDX and Gem at one-quarter of the MTD (15 mg/kg); MTX (60 mg/kg) alone, Ara-C (300 mg/kg) alone or both
Protocol: The same type of test was repeated to assess the in vivo efficacy of using combination therapies. […] Schedule dependent treatment was also determined by pretreating animals with PDX or MTX followed 24 hours later with Gem or Ara-C, respectively. One cohort of animals was treated with Gem followed by PDX. In all cases, the control animals received intraperitoneal injections of normal saline.
Tumor bearing mice were assessed for weight loss and tumor volume at least twice weekly for the duration of the experiment. The data are expressed as the average tumor volume (mm3) per group as a function of time. Tumors were assessed by measuring the two largest perpendicular axes (l=length, w=width) with standard calipers. Tumor volume was calculated using the formula 4/3 πr^3 where r=(l+w)/4. Animals were sacrificed when one dimensional tumor diameter exceeded 2.0 cm, or after loss of more than 10% of their body weight in accordance with institutional guidelines. Animals were housed in standard shoe box cages in temperature and humidity constant rooms on a 12 hour light and dark cycle. Food and water were supplied ad libitum. Animals were maintained in core animal facilities under an institute approved animal protocol.

[6] = test system: SKI-DLCL-1 (Diffuse large B Cell); assay: Growth inhibition in vitro, 5 day exposure (XTT or Alamar blue); type: cell-based; conditions: Homo sapiens, 120 h, 5 day drug exposure
Protocol: A PDX preparation prepared in accordance with Example 1 and an MTX preparation were tested for cytotoxicity against a panel of five human lymphoma cell lines. Experiments were performed as described previously. (Sirotnak et al., Cancer Chemother. […] Colorimetric dye (XTT or Alamar blue) was added for an addition period of time (XTT dye, 6 hours, Alamar blue, 24 hours). Each plate was then read on an automated plate reader at 590 nm. The percentage of inhibition was calculated as growth of cells exposed to drug divided by growth of controls (cells incubated with media only). […] Experiments were repeated as lest three times.

Raji (Burkitt's) = assay: as above; type: cell-based; conditions: Homo sapiens, 120 h, 5 day drug exposure
Protocol: (§3) A PDX preparation prepared in accordance with Example 1 and an MTX preparation were tested for cytotoxicity against a panel of five human lymphoma cell lines. Experiments were performed as described previously. (Sirotnak et al., Cancer Chemother. Pharmacol. 12: 18-25 (1984). In brief, 2.5 to 5×10^3 cells were plated per well in 96-well flat bottom plates. Drug was added in a 0.9% NaCl solution (pH 7.0) over a range of concentrations, and cells were continuously exposed to drug for 5 days. Colorimetric dye (XTT or Alamar blue) was added for an addition period of time (XTT dye, 6 hours, Alamar blue, 24 hours). Each plate was then read on an automated plate reader at 590 nm. The percentage of inhibition was calculated as growth of cells exposed to drug divided by growth of controls (cells incubated with media only). IC50 values were determined as the drug concentrations at which cell growth was inhibited 50% as compared to controls. Experiments were repeated as lest three times. Experiments were also conducted with continuous drug exposures lasting for 3 and 4 days with results similar to the 5 day results.

[7] = test system: RL (Transformed follicular); assay: as above; type: cell-based; conditions: Homo sapiens, 120 h, 5 day drug exposure
Protocol: as §3

[8] = test system: HT (Diffuse large B cell); assay: as above; type: cell-based; conditions: Homo sapiens, 120 h, 5 day drug exposure
Protocol: as §3

[9] = test system: Hs445 (Hodgkin's disease); assay: as above; type: cell-based; conditions: Homo sapiens, Hs 445, 120 h, 5 day drug exposure
Protocol: as §3

SKI-DLBCL cells = assay: Cell cycle analysis (propidium iodide binding); type: cell-based, human; conditions: result in words
Protocol: All drugs were assayed at equimolar concentrations (i.e. 1 nM). The incubation conditions were modeled after the in vitro cytotoxicity experiments. Single agent drugs or combinations of all drugs studied without schedule considerations were incubated for 72 hours, while drugs that were studied in some schedule were introduced in a 24+48 incubation scheme (i.e. drug B added 24 hours following drug A, then incubated for an additional 48 hours for a total incubation time of 72 hours). […] In addition to monitoring apoptosis, cell cycle kinetic analyses were also performed on all treated cells based the propidium iodide binding.

C#CCC(Cc1cnc2nc(N)nc(N)c2n1)c1ccc(C(=O)N[C@@H](CCC(=O)O)C(=O)O)cc1 (stereo partly shown) [PDX, 10-Propargyl-10-deazaminopterin]
tumor regrowth, % of initial tumor volumes ([1]; PDX or Gem at 60 mg/kg, by day 44): 739% | apoptotic cells in tumor tissue (TUNEL) (SKI-DLBCL-1 xenografts): a high level of apoptotic cells | Complete Regression (no/total) ([2]; MTX 40 mg/kg, PDX 60 mg/kg): 5/9 | Tumor Regression (%) ([2]; PDX 60 mg/kg): 56% | decrease of tumor volumes from initial volumes ([2]; PDX 60 mg/kg): at least 50% | mice with tumor regressions ([2]; PDX 60 mg/kg, 5 of 9 mice): 57% | Complete Regression (no/total) ([3]; MTX 40 mg/kg, PDX 60 mg/kg): 3/10 | Tumor Regression (%) ([3]; PDX 60 mg/kg): 54% | decrease of tumor volumes from initial volumes ([3]; PDX 60 mg/kg): at least 50% | mice with tumor regressions / complete remissions ([3]; PDX 60 mg/kg, 3 of 10 mice): 30% | Complete Regression (no/total) ([4]; MTX 40 mg/kg, PDX 60 mg/kg): 8/9 | Avg Tumor Diameter (mm ± SE) ([4]; MTX 40 mg/kg, PDX 60 mg/kg, at the nadir of tumor regression): 0.5 mm | mice with complete tumor regression ([4]; PDX 60 mg/kg, 8 of 9): 89% | Tumor Regression (%) ([4]; PDX 60 mg/kg, average tumor regression): 99% | maximum tolerated dose (MTD) ([5]; intraperitoneal, twice weekly, four total doses): 60 mg/kg | weight loss at the MTD [5]: less than 10%

CN(Cc1cnc2nc(N)nc(N)c2n1)c1ccc(C(=O)N[C@@H](CCC(=O)O)C(=O)O)cc1 [MTX, methotrexate]
tumor response (in words) (SKI-DLBCL-1 xenograft): sacrificed early due to excessive tumor growth | tumor response (in words) [1]: modest growth delay compared to the control | apoptotic cells in tumor tissue (TUNEL) (SKI-DLBCL-1 xenografts): little or no evidence of apoptotic cells | tumor response (in words) ([2]; MTX 40 mg/kg): small reductions in growth an no regressions | tumor response (in words) ([3]; MTX 40 mg/kg): small reductions in growth an no regressions | tumor response (in words) ([4]; MTX 40 mg/kg): modest growth delay as compared to controls, there was no tumor regression | weight loss at the MTD [5]: less than 10% | IC50 [6]: 48 ± 2.5 nM | IC50 (Raji (Burkitt's)): 16 ± 0.8 nM | IC50 [7]: 210 ± 40 nM | IC50 [8]: 35 ± 5 nM | IC50 [9]: 32 ± 2.2 nM

Nc1ccn([C@@H]2O[C@H](CO)[C@@H](O)[C@@H]2O)c(=O)n1 [Ara-C, cytarabine]
tumor response (in words) (SKI-DLBCL-1 xenograft): sacrificed early due to excessive tumor growth | tumor response (in words) [1]: modest growth delay compared to the control

Nc1ccn([C@@H]2O[C@H](CO)[C@@H](O)C2(F)F)c(=O)n1 [Gem, 1-(2′,2′-difluoro-β-D-arabinofuranosyl) cytosine]
fraction of cells in S-phase (SKI-DLBCL cells): fewest
